Reference: article PMC6290777, “Inhalation of the prodrug PI3K inhibitor CL27c improves lung function in asthma and fibrosis” (Nature Communications, 2018)

Tests used:
[1] = tested on: Akt phosphorylation (Ser473) in bone marrow-derived macrophages (BMDM); test: Akt phosphorylation in BMDM stimulated with C5a; assay type: cell-based, mouse; conditions: C5a 25 nM
Experimental: BMDMs were obtained from bone marrows isolated from femurs and tibias of C57BL/6J mice. Bone marrow cells were cultured in a petri plate in the presence of RPMI additioned with 30% L-cell conditioned medium (supernatant of 5 days culture of L929 cells), 20% FBS and 100 μg/ml penicillin and streptomycin. After about 7 days, almost all cells became attached BMDM. BMDM were pretreated with Versene (GIBCO^TM #15040066) to detach them from the plate, washed, and placed on a 24 wells culture plate at a density of 2 × 10^5 cell/well in RPMI free medium. After 6 h of starvation, BMDMs were pretreated with CL27c at different concentrations and stimulated with C5a (25 nM, Sigma-Aldrich #SRP4895A) for 5 min. Proteins were extracted with Laemnli buffer.
For all cell types, phosphorylated Akt (P-Akt, Ser 473, 1:100, Cell Signaling Technology #4060) production was detected by western blot analysis and quantified with ChemiDoc™ XRS system. P-Akt signals are normalized on endogenous. For the calculation of EC50 values, a percentage of residual P-Akt was calculated for each inhibitor concentration by using the control vehicle as 100%. To derive the EC50, all data were plotted on a dose response curve (Graph Pad software) and the EC50 was calculated by using the non-linear regression fit (equation [log agonist] vs response–variable slope). […]
panel). […] The respective EC50 was calculated by using nonlinear

[2] = Microsomial stability, mouse; assay type: in vitro ADME; conditions: mouse liver microsomes, NADPH
Experimental: To define whether this prodrug was suitable for inhaled administration, CL27c was studied to evaluate selected ADME (absorption, distribution, metabolism, and excretion) and pharmacokinetic properties. First, stability of CL27c and CL27e was analyzed in mouse plasma (Supplementary Table 1) and in mouse, rat, and human liver microsomes in the presence of nicotinamide adenine dinucleotide phosphate (NADPH; Supplementary Table 2). Next, clearance of CL27c was analyzed in C57BL/6J mice after either intra-venous or oral administration. […] Clearance of CL27c and CL27e after oral administration could not be determined due to their low bioavailability (Supplementary Table 3). […]
obtained at 200 × magnification were analyzed using the software Image -J (NIH, USA). Results were expressed as extracellular matrix deposition area (pixels). […]
Akt phosphorylation was measured by western blot as described in the “Western blot analysis” in […]
Cells were obtained from Lymph nodes and spleen from naive C57Bl/6J and purified with CD4 T cell isolation Kit (Miltenyi Biotec #130-104-454) and with CD25 biotin (eBioscience #13-0252-81) and microbeads anti-biotin (Miltenyi Biotec #130-090-485). […] Positive stained cells were analyzed with FlowJo X software after removal of doublets events and debris through FSC-A/FSC-H gating.

[3] = Microsomial stability, human; assay type: in vitro ADME; conditions: human liver microsomes, NADPH
Experimental: To define whether this prodrug was suitable for inhaled administration, CL27c was studied to evaluate selected ADME (absorption, distribution, metabolism, and excretion) and pharmacokinetic properties. First, stability of CL27c and CL27e was analyzed in mouse plasma (Supplementary Table 1) and in mouse, rat, and human liver microsomes in the presence of nicotinamide adenine dinucleotide phosphate (NADPH; Supplementary Table 2). Next, clearance of CL27c was analyzed in C57BL/6J mice after either intra-venous or oral administration. […] Clearance of CL27c and CL27e after oral administration could not be determined due to their low bioavailability (Supplementary Table 3). Next, pharmacokinetics after inhalation was studied in C57BL/6J mice after delivering an aerosolized micro-suspension of CL27c. As shown in Table 1 and Supplementary Fig. 1b, CL27c dose-dependently reached the lungs and its metabolite CL27e was detectable after inhalation of the highest dose. […] Therefore, the inhaled prodrug promotes local effects but prevents systemic absorption of pharmacologically relevant amounts of the active compound. […]
All tests for the microsomial stability of CL27c were conducted by the Istituto di Ricerche Biomediche (RBM) SpA – Merck Serono, Ivrea, Italy. […]
Then, cells […]
pretreated with different doses of CL27c were incubated at 37°C and 5% CO 2 for 10 minutes. […]

COC(=O)c1cccc(Cn2cc(-c3cccc4c(=O)cc(N5CCOCC5)[nH]c34)nn2)c1 [CL27c]
Akt/PKB phosphorylation [1]: readily reduced Akt/PKB phosphorylation
Clint (intrinsic clearance) [2]: 0.1 ± 0.02 ml/min/mg prot
t1/2 [2]: 12.4 ± 2.0 min
Clint (intrinsic clearance) [3]: 0.1 ± 0.03 ml/min/mg prot
t1/2 [3]: 10.2 ± 2.2 min
